Ki, Km and kcat data for four compounds are collected here from ChEMBL document CHEMBL1144678, “Thiahomoisocitrate: a highly potent inhibitor of homoisocitrate dehydrogenase involved in the alpha-aminoadipate pathway” (Bioorg Med Chem, 2008).

Usually Ki stands for the dissociation constant of the complex between target and ligand, obtained from inhibition or displacement. Read a high Ki as weaker binding. The term Km denotes the substrate concentration at which the rate is half of its maximum. By kcat is commonly meant the maximal rate divided by the concentration of active sites.

Test [1] can be described thus: Inhibition of Saccharomyces cerevisiae homoisocitrate dehydrogenase.
A further test has as its system Saccharomyces cerevisiae. The experiment in a line: Activity of Saccharomyces cerevisiae homoisocitrate dehydrogenase.

Consider `O=C(O)CO[C@H](C(=O)O)[C@@H](O)C(=O)O`, for which affinity in test [1] was put at a Ki of 10 µM. Also, in the test with Saccharomyces cerevisiae, the Michaelis-Menten constant (Km) came to 20 µM and the kcat was 0.59 s⁻¹.

Regarding `O=C(O)CSCC(=O)C(=O)O`, affinity in test [1] was put at a Ki of 12 µM. Regarding `O=C(O)CN[C@H](C(=O)O)[C@@H](O)C(=O)O`, in the test with Saccharomyces cerevisiae, the Km stood at 150 µM and the turnover number (kcat) is 2 s⁻¹. `O=C(O)CS[C@H](C(=O)O)[C@@H](O)C(=O)O` returned a Ki in test [1] of 0.097 µM.
